Where a name gives a salt, the structure may show the parent alone.

Data set [1] relates to histamine type bronchospasms. As to the kind of experiment: anti-bronchoconstrictor activity in guineapigs, KONZETT and ROSSLER technique, histamine-induced bronchospasm. In kind it is in vivo. Particulars: histamine 5 μg/kg^-1 i.v.; for inhibition at 1 mg/kg / inhibition at 5 mg/kg: iv, anaesthetised guineapigs, read-out: Percentage Inhibition. As to the method:
(§1) The anti-bronchoconstrictor activity of the compounds of the invention is evaluated in guineapigs by the KONZETT and ROSSLER technique.
(§2) After being anaesthetised with ethyl carbamate and submitted to tracheotomy, the animals are given artificial breathing at constant volume and the intertracheal pressure is recorded, which makes an indirect measurement of the total pulmonary resistance possible. Histamine (5 μg/kg^-1 i.v.) is administered before, and at different time intervals after, intravenous administration of the compounds of the invention.
(§3) The activity of the product under study is evaluated by comparing the amplitudes of the bronchospasms before and after treatment and calculating the percentage change. The duration of action of the compounds under study has also been observed. (Table I). This table also contains an acute toxicity rating (LD50) determined by oral administration in mice.

Data set [2] concerns serotoninergic bronchospasms. As to the kind of experiment: bronchospasm experiment repeated replacing histamine with serotonin. It is filed as in vivo, guineapigs. Particulars: iv, 1 h; compound 5 mg/kg^-1 intravenously; serotonin 20 μg/kg^-1 I.V.; observed during 60 minutes. As to the method: as §1, §2, §3
In addition, the bronchosparm experiment was repeated, but replacing histamine with serotonine, (20 μg/kg^-1, I.V.).

A short description of data set [3]: acute toxicity rating (LD50) by oral administration in mice. The conditions noted are these: mouse, in vivo. As to the method: as §3

For `CCOC(CN1CCN(CC23Oc4ccccc4C2CCCC3O)CC1)c1ccccc1` (centres unmarked) [Compound 1, 1,2,3,4,4a,9b-hexahydro-4a-(1-[4-(2-ethoxy-2-phenyl)ethyl]piperazinyl)methyl-4-dibenzofuranol], in data set [1] (compound 1 mg/kg^-1 I.V.), the “Duration (duration of action)” value was more than 60 min and the inhibition (as a rule, the drop in the measured response relative to a control, in per cent) at 1 mg/kg was determined as 87.7 ± 6.6%. In data set [1] (compound 5 mg/kg^-1 I.V.), the “Duration (duration of action)” value is more than 60 min and the inhibition at 5 mg/kg amounted to 100%. Moreover, the inhibition at 5 mg/kg in data set [2] turned out to be 87.6%.

In the case of `CCOC(CN1CCN(CC23Oc4ccc(F)cc4C2CCCC3O)CC1)c1ccccc1` (centres unmarked) [Compound 2, 1,2,3,4,4a,9b-hexahydro-4a-(1-[4-(2-ethoxy-2-phenyl)ethyl]piperazinyl)methyl-8-fluoro-4-dibenzofuranol, 2 HCl], in data set [1] (compound 5 mg/kg^-1 I.V.), the “Duration (duration of action)” value is more than 60 min and the inhibition at 5 mg/kg was 95 ± 3.1%. In addition, in data set [3], the LD50 (in general, the dose at which mortality reaches 50%) was determined as 900 mg/kg.

For the compound `CCOC(CN1CCN(CC23Oc4c(OC)cccc4C2CCCC3=O)CC1)c1ccccc1` (centres unmarked) [Compound 3], in data set [1] (compound 5 mg/kg^-1 I.V.), the “Duration (duration of action)” value is more than 45 min and the inhibition at 5 mg/kg worked out at 97.5 ± 2.5%. This compound displayed an LD50 in data set [3] of 320 mg/kg.

Regarding `CCOC(CN1CCN(CC23Oc4ccccc4C2CCCC3=O)CC1)c1ccccc1` (centres unmarked) [Compound 5, 1,2,3,4,4a,9b-hexahydro-4a-(1-[4-(2-ethoxy-2-phenyl)ethyl]piperazinyl)methyl-4-dibenzofuranone], in data set [1] (compound 5 mg/kg^-1 I.V.), the “Duration (duration of action)” value is more than 45 min and the inhibition at 5 mg/kg came out at 80.2 ± 9.9%. Besides, the LD50 in data set [3] was 900 mg/kg.

As to `CCOC(CN1CCN(CC23Oc4ccc(OC)cc4C2CCCC3O)CC1)c1ccccc1` (centres unmarked) [Compound 6], in data set [1] (compound 5 mg/kg^-1 I.V.), the “Duration (duration of action)” value was more than 45 min and the inhibition at 5 mg/kg was 48.2 ± 9.2%. In data set [3], the LD50 worked out at 900 mg/kg.

For `COC(CN1CCN(CC23Oc4ccccc4C2CCCC3O)CC1)c1ccccc1` (centres unmarked) [Compound 8], in data set [1] (compound 1 mg/kg^-1 I.V.), the “Duration (duration of action)” value is more than 60 min and the inhibition at 1 mg/kg turned out to be 95.5 ± 4.6%. In addition, the LD50 in data set [3] worked out at 480 mg/kg.

These data come from patent publication US4409221A, “1,2,3,4,4a,9b-Hexahydro-4a-piperazinylmethyl-4-dibenzofuranone or -dibenzofuranol derivatives” (Riom Laboratories - Cerm S.A., priority 1981, dated 1983).
